From patent EP4702986A1, “POLYPEPTIDE AND USE THEREOF” (Biocells (Beijing) Biotech Co., Ltd., priority 2023, dated 2024)
Numbered stars: 1 amine (or outer) side, 2 acyl side, 3 side chain; on linkers, the order of the positions; unused ones are H or OH. Side chains are listed from the residue outwards. Peptide text beside a SMILES is read from it. * marks the point of attachment. γGlu = O=C(O)[C@H](CCC(=O)[*:2])N[*:1]; Fumaroyl = O=C(O)/C=C/C(=O)*; Suc = O=C(CCC(=O)[*:2])[*:1]; Lauroyl = CCCCCCCCCCCC(=O)*; AEEA = NCCOCCOCC(=O)O

Experiments:
rat model of pMACO [1] = assay: mRS-6 scoring in rat model of pMACO; assay type: in vivo, SD rats; set-up: mRS-7D / mRS-14D / mRS-21D / mRS-30D: scale not given here; settings: for mRS-7D: day 7; for mRS-14D: day 14; for mRS-21D: day 21; for mRS-30D: day 30
Text: (§1) Male SD rats, weighing 280-300 g, were used and acclimatized for at least 3 days. Focal cerebral ischemia was induced by middle cerebral artery occlusion with a suture method under isoflurane anesthesia. The animals were placed in a supine position, a midline incision was made, and the right common carotid artery, external carotid artery, and internal carotid artery were exposed. A 4.0 monofilament nylon suture was advanced from the external carotid artery toward the internal carotid artery lumen until resistance was felt (~20 mm), indicating middle cerebral artery occlusion. The nylon filament was allowed to stay in place to create a permanent model of focal cerebral ischemia. The day of modeling was defined as D1, the next day as D2, and so on. Since the experiment was not be completed in a single batch, and in order to prevent accidental errors, all operations in this experiment had to follow the principle of parallel operation, i.e., the experiment on each day needed to include animals from each group. Sequential numbering for surgical modeling was obtained by sorting the animals according to their body weight before the experiment. After the surgery, successfully modeled pMCAO rats were randomly assigned into a model group and various treatment groups. The detailed grouping of the experiment was as follows: (1) 15 rats in the 5 µg/Kg IRL1620 group with 9 administrations over 3 days; (2) 15 rats in the 6.6 µg/Kg BX225 group with 9 administrations over 3 days; (3) 15 rats in the 19.8 µg/Kg BX225 group with 3 administrations over 3 days; (4) 15 rats in the model (normal saline) group; and (5) 6 rats in the sham group (the sham group underwent the same procedure without vascular ligation and suture insertion). The administration was performed via tail vein injection (iv) with an administration volume of 2 mL/kg. The first administration was 2 hours after the surgery. Administration frequencies were single and multiple administrations per day according to the experimental design. Administrations were performed on D1, D3, and D6, respectively, as detailed in Table 22. The model group and the sham group were given the same volume of vehicle normal saline.

rat model of pMACO [2] = assay: Garcia JH scoring in rat model of pMACO; assay type: in vivo, SD rats; set-up: 5 min Spontaneous Activity / Body Symmetry / Forelimb Extension Movement / Cage Climbing / Body Tactile Response on Both Sides / Beard Touch Reaction on Both Sides / Total Score: scale not given here; settings: for 5 min Spontaneous Activity / Beard Touch Reaction on Both Sides / Body Symmetry / Body Tactile Response on Both Sides / Cage Climbing / Forelimb Extension Movement / Total Score: Garcia JH score
Text: as §1

rat model of pMACO [3] = assay: Grip strength test in rat model of pMACO; assay type: in vivo, SD rats; settings: pMACO rats; 3 administrations (2, 4, 6 h after modeling); IRL1620 5µg/Kg, BX34 7µg/Kg, BX48 5µg/Kg
rat model of pMACO [4] = assay: Foot fault test in rat model of pMACO; assay type: in vivo, SD rats; settings: BX34 7 µg/Kg, BX48 5 µg/Kg
Text: Male SD rats weighing 280-300 g were used and acclimated for at least 3 days. Focal cerebral ischemia was induced by middle cerebral artery occlusion with a suture method under isoflurane anesthesia. The animals were placed in a secure supine position, and a midline incision was made to expose the right common carotid artery, external carotid artery, and internal carotid artery. A 4.0 monofilament nylon suture was advanced from the external carotid artery toward the internal carotid artery lumen until resistance was felt ( ~ 20 mm), indicating middle cerebral artery occlusion. The nylon filament was allowed to stay in place to create a permanent model of focal cerebral ischemia. Successfully modeled rats were randomly assigned to four groups: a solvent (normal saline) group (n=10), a 7 µg/Kg BX-34 group (n=10), a 5 µg/Kg BX-48 group (n=10), and a 5 µg/Kg IRL1620 group (n=10). Each group was administered once at 2 hours, 4 hours, and 6 hours, respectively, after modeling, for a total of three administrations. Grip strength was measured before administration and at 24 hours and on D3 and D7 after administration. A rotarod test and a foot fault test were performed before administration and at 24 hours and day 7 after administration. During the rotarod test, time and distance were recorded, and ratios of the measurement at 24 hours and the measurement at D7 to the pretest measurement were used as analysis indicators. The specific method for the foot fault test was as follows. The rats were placed on an elevated grid floor (29×29 cm, grid opening: 3 cm^2) for 2 minutes, and the number of foot faults (when a forelimb fell through the grid) and the total steps were recorded. % Foot fault = (the number of forelimb faults/the total number of forelimb steps) × 100.

SD rats = settings: BX34 42 µg/Kg, BX229 6.6 µg/Kg
Procedure: Male SD rats were anesthetized with isoflurane, and their neck hairs were shaved. A midline incision was made on the neck to expose the trachea. A ventilator and anesthesia machine for small animals were turned on, with concentration of an anesthetic gas set to 1.2, and its exit channel connected to an inlet of the ventilator. Tidal volume of the ventilator was set to 2 mL, the respiratory rate was 90 breaths/minute, and the respiratory ratio was 1:2. An outlet end of the ventilator was connected to a plastic hose, which was inserted into the rat's airway.
A machine and a software of a biological signal data acquisition and analysis system were turned on. One end of a data acquisition plate was connected to the plastic hose, and the other end was connected to a collector valve connected with a 1-mL syringe. The syringe was filled with heparinized saline, which was injected into the data acquisition plate to expel the air in the entire space until the heparinized saline flowed out from the other end of the plastic hose. The right common carotid arteries of the rats were isolated. A dead knot was made at the distal end and a slipknot at the proximal end of a right common carotid artery. A 1/2-sized incision was made in the artery between the knot with a microscissor, and the plastic hose with heparinized saline was inserted into the incision and fixed to prevent back-and-forth movement. The initial value of the blood pressure was set to zero with the zero-adjustment valve of the biological signal data acquisition and analysis system. The slipknot at the proximal end of the common carotid artery was untied, and real-time blood pressure data of the animal appeared on the software. […] The dosages of IRL1620, BX34, and BX229 were 5 µg/Kg, 42 µg/kg, and 6.6 µg/Kg, respectively.

[5] = 3Time regimen: IRL1620 5 µg/Kg, BX225 6.6 µg/Kg
[6] = pMCAO rats, 6.6 µg/Kg three-dose group, iv
[7] = Day 21, 19.8 µg/Kg, 1Time regimen
[8] = Day 21, 3Time regimen: IRL1620 5 µg/Kg, BX225 6.6 µg/Kg
[9] = Day 30, 19.8 µg/Kg, 1Time regimen
[10] = Day 30, 3Time regimen: IRL1620 5 µg/Kg, BX225 6.6 µg/Kg
[11] = SD rats, tail vein, IRL620 5 µg/Kg

CCCCCCCCCCCC(=O)N[C@@H](CCC(=O)NCCOCCOCC(=O)NCCCC[C@H](NC(=O)[C@H](Cc1c[nH]cn1)NC(=O)[C@H](C)NC(=O)[C@H](Cc1ccccc1)NC(=O)[C@H](Cc1ccc(O)cc1)NC(=O)[C@@H](NC(=O)[C@H](C)NC(=O)[C@H](CCC(=O)O)NC(=O)[C@H](CCC(=O)O)NC(=O)[C@H](CC(=O)O)NC(=O)/C=C/C(=O)O)C(C)C)C(=O)N[C@@H](CC(=O)O)C(=O)N[C@H](C(=O)N[C@H](C(=O)N[C@@H](Cc1c[nH]c2ccccc12)C(=O)O)[C@@H](C)CC)[C@@H](C)CC)C(=O)O [BX-225] (Fumaroyl-DEEAVYFAHK([AEEA-γGlu-Lauroyl])DIIW-OH)
mRS-7D (rat model of pMACO [1]; 19.8 µg/Kg, 1Time regimen): 3.14±2.14
mRS-7D (rat model of pMACO [1]; [5]): 1.67±0.50
mRS-14D (rat model of pMACO [1]; 19.8 µg/Kg, 1Time regimen): 3.90±2.61
mRS-14D (rat model of pMACO [1]; [5]): 1.17±0.50
mRS-21D (rat model of pMACO [1]; 19.8 µg/Kg, 1Time regimen): 3.73±2.81
mRS-21D (rat model of pMACO [1]; [5]): 0.75±0.41
mRS-30D (rat model of pMACO [1]; 19.8 µg/Kg, 1Time regimen): 3.65±2.91
mRS-30D (rat model of pMACO [1]; [5]): 0.50±0.31
mRS-6 score on day 14 compared with the normal saline group and the IRL1620 three-dose group (rat model of pMACO [1]; [6]): close to a significant difference
mRS-6 scores, course from day 7, day 14, day 21, to day 30 (rat model of pMACO [1]; [6]): continuous improvement
mRS-6 scores on days 7, 21, and 30 compared with the normal saline group and the IRL1620 three-dose group (rat model of pMACO [1]; pMCAO rats, 6.6 µg/Kg three-dose group, iv, P<0.05): significant differences
5 min Spontaneous Activity (rat model of pMACO [2]; [7]): 1.17±1.47
Beard Touch Reaction on Both Sides (rat model of pMACO [2]; [7]): 1.63±0.80
Body Symmetry (rat model of pMACO [2]; [7]): 0.63±0.80
Body Tactile Response on Both Sides (rat model of pMACO [2]; [7]): 1.60±0.77
Cage Climbing (rat model of pMACO [2]; [7]): 1.69± 0.85
Forelimb Extension Movement (rat model of pMACO [2]; [7]): 0.80±1.01
Total Score (rat model of pMACO [2]; [7]): 7.51± 5.58
5 min Spontaneous Activity (rat model of pMACO [2]; [8]): 2.89±0.33
Beard Touch Reaction on Both Sides (rat model of pMACO [2]; [8]): 2.70±0.25
Body Symmetry (rat model of pMACO [2]; [8]): 1.74±0.48
Body Tactile Response on Both Sides (rat model of pMACO [2]; [8]): 2.50±0.23
Cage Climbing (rat model of pMACO [2]; [8]): 2.30± 0.71
Forelimb Extension Movement (rat model of pMACO [2]; [8]): 1.87±0.52
Total Score (rat model of pMACO [2]; [8]): 13.99 ±1.49
5 min Spontaneous Activity (rat model of pMACO [2]; [9]): 1.25±1.54
Beard Touch Reaction on Both Sides (rat model of pMACO [2]; [9]): 1.50±0.65
Body Symmetry (rat model of pMACO [2]; [9]): 0.78±0.98
Body Tactile Response on Both Sides (rat model of pMACO [2]; [9]): 1.46±0.59
Cage Climbing (rat model of pMACO [2]; [9]): 1.79±0.98
Forelimb Extension Movement (rat model of pMACO [2]; [9]): 0.93+1.15
Total Score (rat model of pMACO [2]; [9]): 7.71± 5.82
5 min Spontaneous Activity (rat model of pMACO [2]; [10]): 3.00±0.00
Beard Touch Reaction on Both Sides (rat model of pMACO [2]; [10]): 2.39±0.13
Body Symmetry (rat model of pMACO [2]; [10]): 2.07±0.29
Body Tactile Response on Both Sides (rat model of pMACO [2]; [10]): 2.29±0.18
Cage Climbing (rat model of pMACO [2]; [10]): 2.81±0.15
Forelimb Extension Movement (rat model of pMACO [2]; [10]): 2.25±0.23
Total Score (rat model of pMACO [2]; [10]): 14.81 ±0.56
Garcia JH scores on days 21 and 30 compared with the normal saline group (rat model of pMACO [2]; [6]): statistical differences
Garcia JH scores, course from day 7, day 14, day 21, to day 30 (rat model of pMACO [2]; [6]): continuous improvement trend

CC[C@H](C)[C@H](NC(=O)[C@H](CC(=O)O)NC(=O)[C@H](CC(C)C)NC(=O)[C@H](Cc1c[nH]cn1)NC(=O)[C@H](C)NC(=O)[C@H](Cc1ccccc1)NC(=O)[C@H](Cc1ccc(O)cc1)NC(=O)[C@@H](NC(=O)[C@H](C)NC(=O)[C@H](CCC(=O)O)NC(=O)[C@H](CCC(=O)O)NC(=O)[C@H](CC(=O)O)NC(=O)CCC(=O)O)C(C)C)C(=O)N[C@H](C(=O)N[C@@H](Cc1c[nH]c2ccccc12)C(=O)O)[C@@H](C)CC [IRL1620, reference compound] (Suc-DEEAVYFAHLDIIW-OH)
Grip Strength Test 3D/pre (rat model of pMACO [3]): 57%±11%
Grip Strength Test 7D/pre (rat model of pMACO [3]): 61%+13%
Grip Strength Test 24h/pre (rat model of pMACO [3]): 47% ±27%
Foot fault Analysis Mean of 7D (rat model of pMACO [4]; percentage of foot faults at 7D, IRL1620 5 µg/Kg, administered 3 times (2, 4, 6 hours after modeling)): 4.3%+3.14%
Foot fault Analysis Mean of 24h (rat model of pMACO [4]; percentage of foot faults at 24h, IRL1620 5 µg/Kg, administered 3 times (2, 4, 6 hours after modeling)): 14.2%±17.61%
Foot fault Analysis Mean of Pretest (rat model of pMACO [4]; percentage of foot faults, pretest (baseline before administration), groups IRL1620 5 µg/Kg, 3 times): 1%±2%
maximum extent of decrease in blood pressure, of the baseline blood pressure (SD rats; [11]): 16.1%±2.4%
time to the lowest blood pressure (SD rats; [11]): ≤ 2 min
Maximum percentage of blood pressure reduction relative to baseline blood pressure (n = 3) (SD rats; intravenous, IRL1620 5 µg/Kg): 16.1%±2.4%
Time from baseline blood pressure to the lowest blood pressure (SD rats; intravenous, IRL1620 5 µg/Kg): Less than 2 mins
mRS-7D (rat model of pMACO [1]; [5]): 2.54±2.03
mRS-14D (rat model of pMACO [1]; [5]): 2.77±2.66
mRS-21D (rat model of pMACO [1]; [5]): 2.72±2.71
mRS-30D (rat model of pMACO [1]; [5]): 2.52±2.87
5 min Spontaneous Activity (rat model of pMACO [2]; [8]): 1.77±1.48
Beard Touch Reaction on Both Sides (rat model of pMACO [2]; [8]): 1.95±0.82
Body Symmetry (rat model of pMACO [2]; [8]): 0.90±0.80
Body Tactile Response on Both Sides (rat model of pMACO [2]; [8]): 1.79±0.70
Cage Climbing (rat model of pMACO [2]; [8]): 2.03± 0.86
Forelimb Extension Movement (rat model of pMACO [2]; [8]): 1.26±1.05
Total Score (rat model of pMACO [2]; [8]): 9.70± 5.58
